Measurements published in patent US9138013B2, “Sweet flavor modifier” (SENOMYX, INC., priority 2012, dated 2015).

What was measured:
human panelists [1] = assay: Paired comparison test, sweet flavor potentiation with sucrose or HFCS as the sweetener; type: in vivo
Description: (§1) Test samples containing experimental compounds are presented in pairs to the panelist and they are asked to determine which of the sample is sweeter. […] A group of 10-16 or more panelists participated in each test. Subjects refrained from eating or drinking (except water) for at least 1 hour prior to the test. Subjects rinsed with water several times to clean the mouth.
(§2) Taste tests were performed with sucrose or HFCS as the sweetener in the presence or absence of compound. A 0.2% stock solution of compound in water with sodium bicarbonate was prepared and then this stock solution was diluted in the final sample to achieve the targeted final concentration of compound. For the sample evaluated at pH 2.8 the pH of the solution is decreased to about pH 2.8 using citric acid. Taste samples were also prepared in a low sodium phosphate buffer (pH 7.1; “LSB”) lacking sucrose or HFCS to evaluate the taste of the compound alone. Low sodium phosphate buffer consists of 0.3 mM KCl, 0.5 mM Na2HPO4, and 0.175 mM KH2PO4. Sample volumes are usually 20 ml.
(§3) In one paired comparison test, the panelist is presented with two different samples and asked to identify the sample which is sweeter. The samples within a paired comparison test are presented in a randomized, counterbalanced order. Panelists have up to a 1 minute delay between taste tests to clear the mouth of any tastes.
(§4) Binomial probability tables are used to determine the probability of the correct number of responses occurring for each test at alpha=0.05.

human panelists [2] = assay: Paired comparison test, taste of the compound alone in low sodium phosphate buffer (LSB); type: in vivo
Description: as §1, §2, §3, §4

human panelists [3] = assay: Sucrose potentiation in Iced Coffee product prototype, paired comparison test; type: in vivo; settings: Table 19: Iced Coffee, 8% Sucrose vs 4% Sucrose + 7.6 μM Compound K2; n = 33 (11 panelists × 3 reps)
Description: All samples were made in an Iced Coffee formulation consisting of Brewed Coffee, 2% milk, Sucrose and water. The samples were prepared using a 0.2% Compound stock made with 0.2% sodium bicarbonate and water. Tests samples are presented in pairs to the panelists and they are asked to determine which of the sample is sweeter.
as §3, §4

melting point	SMILES	Sample selected as sweeter by panelists, Total (human panelists [1]; Table 1-a: 12% Sucrose vs 6% Sucrose + 21 μM Compound Q1, pH 7.1, n = 30 (15 panelists × 2 reps))	Sample selected as sweeter by panelists, Total (human panelists [1]; Table 1-b: 12% Sucrose vs 6% Sucrose + 7.9 μM Compound Q1, pH 2.8, n = 42 (14 panelists × 3 reps))	Sample selected as sweeter by panelists, Total (human panelists [1]; Table 4-a: 12% Sucrose vs 6% Sucrose + 12.7 μM Compound J2, pH 7.1, n = 51 (17 panelists × 3 reps))	Sample selected as sweeter by panelists, Total (human panelists [1]; Table 4-b: 12% Sucrose vs 6% Sucrose + 12.7 μM Compound J2, pH 2.8, n = 45 (15 panelists × 3 reps))	Sample selected as sweeter by panelists, Total (human panelists [1]; Table 7-a: 11% Sucrose vs 6% Sucrose + 12.7 μM Compound K2, pH 7.1, n = 36 (12 panelists × 3 reps))	Sample selected as sweeter by panelists, Total (human panelists [1]; Table 7-b: 12% Sucrose vs 6% Sucrose + 7.6 μM Compound K2, pH 2.8, n = 36 (18 panelists × 2 reps))	Sample selected as sweeter by panelists, Total (human panelists [1]; Table 10: 12% Sucrose vs 6% Sucrose + 12.7 μM Compound L2, pH 7.1, n = 42 (14 panelists × 3 reps))	Sample selected as sweeter by panelists, Total (human panelists [1]; Table 13: 12% Sucrose vs 6% Sucrose + 11.9 μM Compound B1, pH 7.1, n = 34 (17 panelists × 2 reps))	Sample selected as sweeter by panelists, Total (human panelists [1]; Table 16: 10% Sucrose vs 6% Sucrose + 9.2 μM Compound F3, pH 7.1, n = 33 (11 panelists × 3 reps))	Sample selected as sweeter by panelists, Total (human panelists [2]; Table 3: 1% Sucrose vs LSB + 26.3 μM Compound Q1, n = 26 (13 panelists × 2 reps))	Sample selected as sweeter by panelists, Total (human panelists [2]; Table 6: 1% Sucrose vs LSB + 20.4 μM Compound J2, n = 26 (13 panelists × 2 reps))	Sample selected as sweeter by panelists, Total (human panelists [2]; Table 9: 1% Sucrose vs LSB + 12.7 μM Compound K2, n = 51 (17 panelists × 2 reps))	Sample selected as sweeter by panelists, Total (human panelists [2]; Table 12: 1% Sucrose vs LSB + 12.7 μM Compound L2, n = 36 (12 panelists × 3 reps))	Sample selected as sweeter by panelists, Total (human panelists [2]; Table 15: 1% Sucrose vs LSB + 11.9 μM Compound B1, n = 45 (15 panelists × 3 reps))	Sample selected as sweeter by panelists, Total (human panelists [2]; Table 18: 1% Sucrose vs LSB + 9.2 μM Compound F3, n = 30 (15 panelists × 2 reps))	Sample selected as sweeter by panelists, Total (human panelists [3])
> 250 °C	NC1=NS(=O)(=O)Nc2cccc(OC[C@H]3CCCN(C(=O)c4ccncc4)C3)c21 [Example 3, (S)-(3-(((4-amino-2,2-dioxido-1H-benzo[c][1,2,6]thiadiazin-5-yl)oxy)methyl)piperidin-1-yl)(pyridin-4-yl)methanone]																
	OC[C@H]1O[C@@](CO)(O[C@H]2O[C@H](CO)[C@@H](O)[C@H](O)[C@H]2O)[C@@H](O)[C@@H]1O [Sucrose, sucrose]	18	24	28	20	20	21	19	19	16	14	14	29	19	19	16	16
